Assay results as given in patent US11891703B2, “Corrosion inhibition package” (DORF KETAL CHEMICALS FZE, priority 2017, dated 2024).

How the values were obtained:
[1] = death can occur in 2-3 minutes; cited from earlier work
[2] = cited from earlier work
[3] = Corrosion test of acid compositions with corrosion inhibition package on 1018 steel coupons; settings: Table 3, 1.2:1 HCl-Urea, 50% dilution in seawater, 90° C., 6 hours, 1% package + 1% CI-1A
From the text: Various types of steel alloy coupons were subjected to corrosion testing in the presence of conventional, synthetic and modified acid compositions using corrosion inhibitor components according to preferred embodiments of the present invention at various temperatures. Coupons of various grades of steel alloys (indicated in each table) were exposed to the various listed compositions for various periods of time at varying temperatures.
The following corrosion testing outlined in the tables below for a number of different corrosion inhibition packages according to the present invention in the presence of a synthetic or modified acid composition was carried out diluted with saline water (in most cases) at various temperatures for various durations of exposure. Depending on the intended use/application of an acidic fluid composition comprising a corrosion inhibitor package according to the present invention, a desirable result would be one where the lb/ft^2 corrosion number is at or below 0.05. A more desirable would be one where the corrosion (in lb/ft^2) is at or below 0.02. Generally, seawater has the deleterious effect of potentiating corrosion, consequently corrosion inhibition packages which follow the guidelines or regulations for offshore oil production are highly desirable for operators. Where applicable the fluids (acid compositions) were diluted as indicated.

[4] = cited from earlier work; remark: listed apart in the source

Cl [Hydrogen chloride gas, Hydrogen chloride]
level at which death can occur [1]: 1300-2000 ppm

CCCCCCOCCOCCOCCO [NOVEL® 6-3 Ethoxylate, CH3 (CH2)4CH2(OCH2CH2)3OH]
solubility in hydrocarbons [2]: soluble | solubility in water [2]: sparingly soluble

O=CC=Cc1ccccc1 [ZA, Cinnamaldehyde]
Corrosion lb/ft2 [3]: 0.008 lb/ft2 | Corrosion rate Mils/yr [3]: 296.053 Mils/yr | Corrosion rate mm/year [3]: 7.52 mm/year | Wt loss [3]: 0.168 g

C#CCO [propargyl alcohol]
performance on Cr-13 alloys (pitting) [4]: poor performance
